Assay results from EP4685142A1, “TRIAZINE COMPOUND AND USE THEREOF” (Chengdu Zenitar Biomedical Technology Co., Ltd., priority 2023, dated 2024).
Read-outs that look alike come from different tables or passages of the source.

Key:
[1] = target: T1, NLRP3 inflammasome (Homo sapiens, UniProt Q96P20); test: Inhibitory activity of NLRP3 inflammasome in human monocytes (THP-1 cells, LPS + Nigericin, IL-1β ELISA); format: cell-based
T1 construct: host or cells: THP-1 cells
Method in brief: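 THP-1 cells differentiated overnight with 10 µM PMA at 37°C and 5% CO2, then primed 3 h with 1 µg/mL LPS in Opti-MEM. Compound applied for 40 min, followed by 40 min with 10 µM nigericin. IL-1β in supernatant measured by ELISA.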

[2] = Pharmacokinetic evaluation in Balb/c mice; format: in vivo
[3] = system: LPS-induced mice; test: LPS-induced mouse model, survival; format: in vivo, Balb/c mice; conditions: for 72h Survival rate: 1 h before 10 mg/kg LPS i.p.
[4] = target: human NLRP3 protein (Homo sapiens, UniProt Q96P20); test: Affinity for human NLRP3 protein (Biacore T200, CM5 chip); format: binding; conditions: protein immobilized on CM5 chip, 25°C
Sequence of human NLRP3 protein (Q96P20 whole entry): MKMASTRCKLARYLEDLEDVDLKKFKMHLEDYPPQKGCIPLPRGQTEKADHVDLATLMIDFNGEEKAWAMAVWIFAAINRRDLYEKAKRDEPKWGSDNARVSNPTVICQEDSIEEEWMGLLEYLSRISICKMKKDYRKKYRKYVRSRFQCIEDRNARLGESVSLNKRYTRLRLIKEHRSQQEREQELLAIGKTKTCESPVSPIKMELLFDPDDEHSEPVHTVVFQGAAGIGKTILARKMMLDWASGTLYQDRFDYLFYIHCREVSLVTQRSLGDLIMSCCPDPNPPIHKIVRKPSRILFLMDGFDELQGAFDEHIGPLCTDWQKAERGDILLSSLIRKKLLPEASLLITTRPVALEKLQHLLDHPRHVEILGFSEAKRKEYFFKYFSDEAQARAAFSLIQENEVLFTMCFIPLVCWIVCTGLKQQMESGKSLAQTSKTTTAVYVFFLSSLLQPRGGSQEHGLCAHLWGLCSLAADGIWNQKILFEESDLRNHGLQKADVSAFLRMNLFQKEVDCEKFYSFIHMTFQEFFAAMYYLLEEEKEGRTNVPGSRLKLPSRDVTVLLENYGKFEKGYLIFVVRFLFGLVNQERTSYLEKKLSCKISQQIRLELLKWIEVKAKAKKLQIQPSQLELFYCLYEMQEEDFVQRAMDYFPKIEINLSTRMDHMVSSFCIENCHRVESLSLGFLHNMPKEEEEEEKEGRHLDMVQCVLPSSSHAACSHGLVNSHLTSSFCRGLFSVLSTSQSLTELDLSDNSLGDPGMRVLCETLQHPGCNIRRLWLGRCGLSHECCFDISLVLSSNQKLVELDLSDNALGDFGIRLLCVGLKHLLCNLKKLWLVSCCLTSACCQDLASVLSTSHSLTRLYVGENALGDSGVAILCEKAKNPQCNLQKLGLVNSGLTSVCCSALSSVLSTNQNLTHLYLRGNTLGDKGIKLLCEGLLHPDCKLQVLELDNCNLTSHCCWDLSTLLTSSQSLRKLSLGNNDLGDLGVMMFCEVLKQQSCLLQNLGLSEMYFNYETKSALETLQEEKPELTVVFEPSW

[5] = target: T2, hERG potassium ion channel (Homo sapiens, UniProt Q12809)
T2 sequence (Q12809 whole entry): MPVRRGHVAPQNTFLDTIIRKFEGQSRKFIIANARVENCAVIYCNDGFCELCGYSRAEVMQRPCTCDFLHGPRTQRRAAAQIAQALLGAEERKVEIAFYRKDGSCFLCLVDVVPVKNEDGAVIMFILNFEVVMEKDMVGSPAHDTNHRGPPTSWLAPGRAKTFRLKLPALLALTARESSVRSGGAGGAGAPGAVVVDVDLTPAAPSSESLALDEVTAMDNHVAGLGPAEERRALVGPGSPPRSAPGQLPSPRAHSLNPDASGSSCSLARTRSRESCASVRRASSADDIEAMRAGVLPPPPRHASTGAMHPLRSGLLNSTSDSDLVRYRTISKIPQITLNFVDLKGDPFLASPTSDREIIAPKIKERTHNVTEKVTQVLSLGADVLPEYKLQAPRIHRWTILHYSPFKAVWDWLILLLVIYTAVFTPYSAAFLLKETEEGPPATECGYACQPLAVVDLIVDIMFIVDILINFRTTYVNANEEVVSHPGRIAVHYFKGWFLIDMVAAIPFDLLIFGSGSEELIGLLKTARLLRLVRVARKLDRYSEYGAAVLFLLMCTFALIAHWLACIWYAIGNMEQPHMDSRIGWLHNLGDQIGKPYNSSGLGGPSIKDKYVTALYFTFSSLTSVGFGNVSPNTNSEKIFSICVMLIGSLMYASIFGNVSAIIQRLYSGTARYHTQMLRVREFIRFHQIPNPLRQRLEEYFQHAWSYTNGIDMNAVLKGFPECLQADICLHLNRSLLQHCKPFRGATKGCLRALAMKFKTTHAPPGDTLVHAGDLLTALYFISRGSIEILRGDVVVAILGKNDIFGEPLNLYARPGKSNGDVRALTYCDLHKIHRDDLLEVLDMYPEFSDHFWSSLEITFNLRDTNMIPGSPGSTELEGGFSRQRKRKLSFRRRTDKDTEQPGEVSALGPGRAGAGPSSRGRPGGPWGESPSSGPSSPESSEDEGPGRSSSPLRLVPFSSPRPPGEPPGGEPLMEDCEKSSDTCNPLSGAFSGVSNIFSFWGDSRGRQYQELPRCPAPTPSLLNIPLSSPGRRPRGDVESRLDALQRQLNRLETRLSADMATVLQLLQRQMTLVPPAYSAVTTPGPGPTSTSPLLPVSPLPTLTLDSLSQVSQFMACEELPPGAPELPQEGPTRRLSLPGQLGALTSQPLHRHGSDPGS
Description: (§1) Inhibition experiment of compounds on hERG potassium ion channel
(§2) Cell culture and treatment: CHO cells stably expressing hERG were cultured in cell culture flasks and incubated in a 5% CO2 incubator at 37°C. When a cell density reached 60%-80%, the cell culture medium was aspirated, washed once with PBS, and then digested with Detachin. After digestion, the grown cells were neutralized in the cell culture medium, and then centrifuged, the supernatant was aspirated, the cell culture medium was added again to resuspend the grown cells, and the cell density was adjusted to 2-5×10^6 cells/mL for later use.
(§3) Compound preparation: the compound stock solution was diluted in 100% DMSO, that is, 10 µL compound stock solution was serially diluted in 20 µL DMSO by 3 folds to obtain six concentrations. Six concentrations of the compound (4 µL for each concentration) were diluted in 396 µL extracellular fluid by 100 folds to obtain six intermediate concentrations. Six intermediate concentrations of the compound (80 µL for each concentration) were diluted in 320 µL extracellular fluid by 5 folds to obtain final concentrations to be tested. […] DMSO in a final test concentration was not more than 0.2%, and DMSO at this concentration had no effect on the hERG potassium channel. The entire dilution process for compound preparation was performed using Bravo instrument.
(§4) Electrophysiological recording process: the processes of single-celled high-impedance sealing and whole-cell mode formation were all automatically completed by Qpatch instrument, under the whole-cell recording mode, the cells were clamped at -80 mV, before 5-second + 40 mV depolarization stimulus, the cells were given 50-millisecond - 50 mV pre-voltage, followed by repolarization to -50 mV for 5 seconds, and then returning to -80 mV. The voltage stimulus was given every 15 seconds, after 2 minutes of recording, extracellular fluid was recorded for 5 min, and then a drug was administrated, started from a lowest test concentration, each test concentration of the compound was given for 2.5 minutes, after all concentrations were given consecutively, a positive control compound Cisapride (3 µM) was given. At least 3 cells were tested for each concentration (n≥3).
(§5) Data processing: data analysis and processing were performed using GraphPad Prism 5.0 and Excel software. IC50 values of the compounds were calculated by fitting with the following equation using GraphPad Prism 5 software: Y = Bottom + (Top−Bottom)/(1+10^(∧)((LogIC50−X)*HillSlope)); [formula] where X is the Log value of the test sample concentration, Y is an inhibition percentage at a corresponding concentration, and Bottom and Top are the minimum and maximum inhibition percentages, respectively.

[6] = In vivo brain-to-plasma ratio in mice; conditions: for Brain / Plasma: male mice, oral 10 mg/kg
Description: Evaluation of in vivo brain-to-plasma ratio of compound
Experimental purpose: to obtain the brain-to-plasma ratio of the compound
Experimental protocol: the brain-to-plasma ratio of the compound was investigated by monitoring the content of the compound in mouse brain and plasma.
Experimental procedure: the compound was weighed, followed by adding a small amount of DMSO and adding a sodium chloride solution for injection, to prepare a 10 mg · mL^-1 compound solution for administration. Male mice were orally administered at 10 mg · kg^-1, and whole plasma and whole brain tissue were sampled at 1 h and 6 h after administration (n=3). […] A centrifuge tube was weighed as M1, the centrifuge tube containing the whole brain tissue was weighed as M2, the centrifuge tube containing water for homogenization was weighed as M3, and the centrifuge tube after the removal of 30 µL homogenate was weighed as M4.
Standard curve range: 10-10,000 ng·mL^-1. Content of drug in brain = measured value × 0.03 × (M3−M1)/[(M2−M1)×(M3−M4)].

[7] = In vivo distribution of cerebrospinal fluid and plasma; conditions: for concentration at 0.25 h / concentration at 2 h: male, mouse, iv, 5 mg/kg; for Cerebrospinal fluid / Plasma: intravenous 5 mg/kg, n=1
Description: Evaluation of in vivo distribution of cerebrospinal fluid and plasma after compound administration
Experimental procedure: the compound was weighed, followed by adding a small amount of DMSO and then adding a sodium chloride solution for injection, to prepare a 5 mg·mL^-1 compound solution for administration. […] Standard curve range: 1-1000 ng·mL^-1.

[8] = target: T2, hERG potassium ion channel; test: Inhibition of hERG potassium ion channel (CHO cells stably expressing hERG, Qpatch)
Description: as §1, §2, §3, §4, §5

[9] = system: IL-1β in human PBMC cells; test: Inhibitory activity on IL-1β in human PBMC cells (LPS + Nigericin, ELISA); format: cell-based; conditions: Homo sapiens, PBMC
Description: 2. Determination of inhibitory activity of compounds on IL-1β in human PBMC cells
Human peripheral blood mononuclear cells (PBMCs) were taken and cultured overnight in RPMI 1640 culture medium containing 10% FBS and antibiotics before stimulation. On the second day, the culture medium was replaced with a serum-reduced culture medium, the grown cells were stimulated for 3 h with LPS at a working concentration of 1 µg/mL, stimulated for 40 min with a drug, and then stimulated for 40 min with Nigericin at a concentration of 10 µM, the cell supernatant was harvested, and the yield of IL-1β was detected by ELISA.
The experimental results are shown in Table 3: Table 3 Inhibitory effect of compounds on IL-1β in PBMC cells

[10] = male, Balb/c, mouse, in vivo, po, 5 mg/kg
[11] = male, mouse, brain/plasma, po, 10 mg/kg
[12] = male, mouse, plasma, po, 10 mg/kg
[13] = 50 mg/kg, First cage (6 mice for Compound 3, 5 mice for Compound 4)
[14] = 50 mg/kg, Second cage (6 mice for Compound 3, 5 mice for Compound 4)

T1 sequence (Q96P20 whole entry): as the sequence (Q96P20 whole entry) above

CN1C[C@H](F)C[C@@H](Nc2nnc(-c3ccc4sccc4c3O)n(C)c2=O)C1 [Compound 40]
IC50 ([1]; THP-1 cells, PMA, LPS 1 µg/mL 3 h, drug 40 min, Nigericin 10 µM 40 min, IL-1β ELISA, read-out: IC50): 2.97 nM
AUC(0-t) [2, 10]: 40400 ng·h/mL
Cmax [2, 10]: 15000 ng/mL
half-life [2, 10]: 2.86 h
72h Survival rate ([3]; 25 mg/kg oral): 90%
survival status of mice (mice alive) 12h ([3]; 25 mg/kg, First cage (5 mice)): 5
survival status of mice (mice alive) 24h ([3]; 25 mg/kg, First cage (5 mice)): 5
survival status of mice (mice alive) 36h ([3]; 25 mg/kg, First cage (5 mice)): 5
survival status of mice (mice alive) 48h ([3]; 25 mg/kg, First cage (5 mice)): 5
survival status of mice (mice alive) 72h ([3]; 25 mg/kg, First cage (5 mice)): 5
survival status of mice (mice alive) 12h ([3]; 25 mg/kg, Second cage (5 mice)): 5
survival status of mice (mice alive) 24h ([3]; 25 mg/kg, Second cage (5 mice)): 5
survival status of mice (mice alive) 36h ([3]; 25 mg/kg, Second cage (5 mice)): 5
survival status of mice (mice alive) 48h ([3]; 25 mg/kg, Second cage (5 mice)): 4
survival status of mice (mice alive) 72h ([3]; 25 mg/kg, Second cage (5 mice)): 4
Kd [4]: 62.1 nM
inhibitory effects on the hERG potassium ion channel (conclusion in words) ([5]; human): Conclusion: compounds 3, 4, 5, 9, 16, 17, 24, 30, 40, 41, 42, 43, 54 and others have weak inhibitory effects on the hERG potassium ion channel, having weaker inhibitory effect than the reference compound Ref-1.
Brain ([6]; 1 h): 1350 ng/g
Brain ([6]; 6 h): 199 ng/g
Kp at 1 h [6, 11]: 0.19
Kp at 6 h [6, 11]: 0.14
concentration at 1 h [6, 12]: 7240 ng/mL
concentration at 6 h [6, 12]: 1460 ng/mL
concentration at 0.25 h ([7]; cerebrospinal fluid): 191 ng/g
concentration at 2 h ([7]; cerebrospinal fluid): 0.51 ng/g
concentration at 0.25 h ([7]; plasma): 5030 ng/mL
concentration at 2 h ([7]; plasma): 826 ng/mL
20 uM Inhibition ratio [8]: 3.48%

CCN1CCC[C@@H](Nc2nnc(-c3ccc4sccc4c3O)n(C)c2=O)C1 [Compound 3, (R)-6-((1-ethylpiperidin-3-yl)amino)-3-(4-hydroxybenzo[b]thiophen-5-yl)-4-methyl-1,2,4-tria zin-5(4H)-ketone]
IC50 [1]: 2.11 nM
IC50 [9]: 1.23 nM
F ([2]; 5 mg/kg PO vs 5 mg/kg IV, Balb/c mice): 81.05%
clearance ([2]; mouse, in vivo, 5 mg/kg, IV, Balb/c mice): 9.67 mL/min/kg
AUC(0-t) ([2]; mouse, in vivo, 5 mg/kg, IV, Balb/c mice, read-out: AUC(0-t)): 8300 ng·h/mL
Cmax ([2]; mouse, in vivo, 5 mg/kg, IV, Balb/c mice, read-out: Cmax): 1990 ng/mL
half-life ([2]; mouse, in vivo, 5 mg/kg, IV, Balb/c mice, read-out: T1/2 (converted)): 5.4 h
Vd ([2]; mouse, in vivo, 5 mg/kg, IV, Balb/c mice, read-out: Vdss): 4.51 L/kg
AUC(0-t) ([2]; mouse, in vivo, 5 mg/kg, PO, Balb/c mice, read-out: AUC(0-t)): 6730 ng·h/mL
Cmax ([2]; mouse, in vivo, 5 mg/kg, PO, Balb/c mice, read-out: Cmax): 1010 ng/mL
half-life ([2]; mouse, in vivo, 5 mg/kg, PO, Balb/c mice, read-out: T1/2 (converted)): 4.9 h
72h Survival rate ([3]; 25 mg/kg oral): 90%
survival status of mice (mice alive) 12h ([3]; 25 mg/kg, First cage (5 mice)): 5
survival status of mice (mice alive) 24h ([3]; 25 mg/kg, First cage (5 mice)): 5
survival status of mice (mice alive) 36h ([3]; 25 mg/kg, First cage (5 mice)): 5
survival status of mice (mice alive) 48h ([3]; 25 mg/kg, First cage (5 mice)): 4
survival status of mice (mice alive) 72h ([3]; 25 mg/kg, First cage (5 mice)): 4
survival status of mice (mice alive) 12h ([3]; 25 mg/kg, Second cage (5 mice)): 5
survival status of mice (mice alive) 24h ([3]; 25 mg/kg, Second cage (5 mice)): 5
survival status of mice (mice alive) 36h ([3]; 25 mg/kg, Second cage (5 mice)): 5
survival status of mice (mice alive) 48h ([3]; 25 mg/kg, Second cage (5 mice)): 5
survival status of mice (mice alive) 72h ([3]; 25 mg/kg, Second cage (5 mice)): 5
72h Survival rate ([3]; 50 mg/kg oral): 92%
survival status of mice (mice alive) 12h [3, 13]: 6
survival status of mice (mice alive) 24h [3, 13]: 6
survival status of mice (mice alive) 36h [3, 13]: 6
survival status of mice (mice alive) 48h [3, 13]: 6
survival status of mice (mice alive) 72h [3, 13]: 6
survival status of mice (mice alive) 12h [3, 14]: 6
survival status of mice (mice alive) 24h [3, 14]: 6
survival status of mice (mice alive) 36h [3, 14]: 5
survival status of mice (mice alive) 48h [3, 14]: 5
survival status of mice (mice alive) 72h [3, 14]: 5
inhibitory effects on the hERG potassium ion channel (conclusion in words) [5]: Conclusion: compounds 3, 4, 5, 9, 16, 17, 24, 30, 40, 41, 42, 43, 54 and others have weak inhibitory effects on the hERG potassium ion channel, having weaker inhibitory effect than the reference compound Ref-1.
Brain ([6]; 1 h): 761 ng/g
Plasma ([6]; 1 h): 2082 ng/mL
Brain ([6]; 6 h): 104 ng/g
Plasma ([6]; 6 h): 312 ng/mL
Kp at 1 h ([6]; mouse, brain, po, 10 mg/kg): 0.36
Kp at 6 h ([6]; mouse, brain, po, 10 mg/kg): 0.33
Cerebrospinal fluid ([7]; 0.25h): 79 ng/g
Plasma ([7]; 0.25h): 781 ng/mL
Cerebrospinal fluid ([7]; 2h): 15 ng/g
Plasma ([7]; 2h): 185 ng/mL
20 uM Inhibition ratio [8]: 38.23%
